Test results as given in patent US4871774A, “Medical treatment” (The Boots Company PLC, priority 1987, dated 1989).
“And” between values parts separate entries of the source, which are not always exact repeats. Equal values may be shown once. Read-outs that look alike come from different tables or passages of the source.

Tests used:
[1] = system: dopamine reuptake; depletion of brain dopamine; test: In vivo inhibition of dopamine reuptake (prevention of α-methyl-m-tyrosine-induced depletion of brain dopamine); set-up: species or system rat (Sprague-Dawley); settings: oral, three doses
Description: An in vivo test for dopamine reuptake inhibition relies on the fact that such reuptake inhibitors can prevent the entry of dopamine-depleting agents into neurons. Depleting agents interfere with the neuronal storage mechanism for dopamine so dopamine leaks into the cytoplasm where it is metabolised by monoamine oxidase. Depleting agents therefore induce a large reduction in brain dopamine levels which can be measured experimentally. Prior treatment with a dopamine reuptake inhibitor reduces the depletion of dopamine levels caused by subsequent administration of a depleting agent such as α-methyl-m-tyrosine.
Male Sprague-Dawley rats (180-220 g: Charles River) were randomly assigned to various treatment groups. […] Thirty minutes later, one vehicle treated group and all the test groups were given an i.p. injection (2 ml/kg) of the depleting agent α-methyl-m-tyrosine (25 mg/kg; Sigma Chemical Co.). […]
Brain samples were thawed and homogenised in 4 volumes of 0.4M perchloric acid containing sodium metabisulphite (0.4 mM) and the internal standard 3,4-dihydroxybenzylamine (0.8 μM). […] Supernatants were removed and their dopamine concentration determined using an HPLC (high pressure liquid chromatography) system with fluorimetric detection.
The percentage prevention (P) of depletion of brain dopamine levels by test compounds is calculated from the formula [formula] […]

[2] = system: uptake of radiolabelled dopamine into freshly prepared synaptosomes from rat striatum; test: Inhibition of dopamine uptake in vitro by plasma from humans treated with drug (14C-dopamine, rat striatal synaptosomes); assay type: biochemical; settings: plasma 3 h after 50 mg oral; for % Inhibition of dopamine uptake: hydrochloride monohydrate
Protocol: (5) Inhibition of dopamine uptake in vitro by plasma from humans treated with drug
The plasma was separated by centrifugation at 2900×g for 20 minutes at room temperature in a Heraeus Christ minicentrifuge and was stored at -20° C. prior to analysis. The samples were thawed in a water bath at 37° C. for 10-15 minutes prior to commencement of the in vitro dopamine uptake assay which was performed as described in (3) above except ^14 C-dopamine was used. The assay was performed twice on plasma from each volunteer.

[3] = system: plasma dopamine level; test: Dopamine level in the plasma of human subjects; assay type: in vivo; settings: for Dopamine levels: human plasma, 2 h after administration
Description: The mean value of domamine in picograms/ml is set out below at days 1, 4 and 7. Eight human subjects who were given placebo tablets provides plasma samples from which the mean control dopamine levels given below were obtained.

[4] = system: uptake of dopamine into striatal synaptosomes; test: In vitro inhibition of dopamine uptake (14C-dopamine, rat striatal synaptosomes); assay type: biochemical, rat (Sprague-Dawley); settings: for IC50: 0.17 μM 14C-dopamine
Protocol: (1) In vitro inhibition of dopamine uptake
Male Sprague-Dawley rats (Charles River) were killed by cervical dislocation and the brains removed and placed in an ice-cold oxygenated Krebs solution containing 120 mM NaCl, 4.7 mM KCl, 2.1 mM KH2 PO4, 1.2 mM CaCl2, 0.6 mM MgSO4, 25 mM NaHCO3 and 11 mM glucose. The brains were then dissected according to the method of Glowinski and Iversen [J. Neurochem. (1966) 13 655-669] and the striata removed. The samples of striata were pooled, weighed and transferred to a glass homogenising vessel on ice, containing oxygenated 0.32M sucrose solution (20 volumes). […] The homogenate was centrifuged at 1000×g for 10 minutes at 4° C. and the supernatant containing a suspension of synaptosomes was used in the dopamine uptake inhibition tests described below. […] A solution of ^14 C-dopamine hydrochloride (Amersham International) was added (0.2 ml) to give a final concentration of 0.17 μM. The incubation was continued for a further 5 minutes before the contents of the tubes were filtered under vacuum through Whatman GF/F filters which were washed with ice-cold Krebs solution (2×5 ml). The filters were placed in scintillation vials containing 10 ml scintillation fluid (ES-299 supplied by Packard Instruments) and the radioactivity in the vials counted on a Packard 4530 scintillation counter. In each experiment there was a control tube in which no test compound was present, 3 tubes in which the compound being tested was present at one of three concentrations (100, 10 and 1 μM) and a background tube containing no test compound which was maintained at 0° C. to determine passive ^14 C-dopamine uptake. The count for each tube was registered in counts per minute (cpm) and the % inhibition of uptake (I) calculated from the formula [formula] […] The concentration which gave 50% inhibition of uptake was then calculated and is given below as the IC50 figure for each experiment.

With `CC(C)CC(N(C)C)C1(c2ccc(Cl)cc2)CCC1.Cl.O` (stereo not shown) [N,N-dimethyl-1-[1-(4-chlorophenyl)cyclobutyl]-3-methylbutylamine hydrochloride monohydrate] the “prevention of brain dopamine depletion (in words)” value [1] was “dose-dependent prevention of brain dopamine depletion”, the “% Inhibition of dopamine uptake, Mean” value ([2]; Volunteer 1, mean of two assays) was 11.6% and the “% Inhibition of dopamine uptake, Mean” value ([2]; Volunteer 2, mean of two assays) was 8.6%. For the same compound, the “% Inhibition of dopamine uptake, Mean” value ([2]; Volunteer 3, mean of two assays) was 15.7%, the “% Inhibition of dopamine uptake” value ([2]; Volunteer 3, single assays (performed twice)) was 13.4% and 17.9% and the “% Inhibition of dopamine uptake, Mean” value ([2]; Volunteer 4, mean of two assays) was 17.9%. For the same compound, the “% Inhibition of dopamine uptake, Mean” value ([2]; Volunteer 5, mean of two assays) was 15.7%, the “% Inhibition of dopamine uptake” value ([2]; Volunteer 5, single assays (performed twice)) was 13.0% and 18.4% and the “% Inhibition of dopamine uptake, Mean” value ([2]; Volunteer 6, mean of two assays) was 16.1%. For the same compound, the “mean (±SEM) % inhibition of 14C-dopamine uptake by plasma from the six drug-treated volunteers” value ([2]; mean of six volunteers) was 14.2±1.4%, the Dopamine levels ([3]; Day 1, 30 mg per day, control 122) was 254 pg/mL and the Dopamine levels ([3]; Day 4, 30 mg per day, control 110) was 294 pg/mL. For the same compound, the Dopamine levels ([3]; Day 7, 30 mg per day, control 118) was 219 pg/mL, the “plasma dopamine levels (in words)” value ([3]; human subjects, 30 mg dose) was “plasma dopamine levels had increased” and the “% Inhibition of uptake” value ([4]; 1 μM, Ex.1) was 31%. The “% Inhibition of uptake” value ([4]; 1 μM, Ex.2) was 4%, the “% Inhibition of uptake” value ([4]; 1 μM, Ex.3) was 12% and the “% Inhibition of uptake” value ([4]; 10 μM, Ex.1) was 70%. For the same compound, the “% Inhibition of uptake” value ([4]; 10 μM, Ex.2) was 35%, the “% Inhibition of uptake” value ([4]; 10 μM, Ex.3) was 48% and the “% Inhibition of uptake” value ([4]; 100 μM, Ex.1) was 96%. The “% Inhibition of uptake” value ([4]; 100 μM, Ex.2) was 81%, the “% Inhibition of uptake” value ([4]; 100 μM, Ex.3) was 86% and the “inhibition of 14C-dopamine uptake (in words)” value ([4]; 100, 10 and 1 μM) was “inhibited ^14 C-dopamine uptake in a concentration-dependent manner”. The IC50 ([4]; Ex.1, 37° C., read-out: IC50) was 3.3 µM, the IC50 ([4]; Ex.2, 37° C., read-out: IC50) was 18 µM and the IC50 ([4]; Ex.3, 37° C., read-out: IC50) was 11 µM. It also gave an IC50 ([4]; mean of three replicate experiments, read-out: mean (±SEM) IC50 value for inhibition of dopamine uptake) of 11 ± 4.2 µM.
